# Reference: patent publication US9375497B2, “[F-18]-labeled L-glutamic acid, [F-18]-labeled L-glutamine, derivatives thereof and use thereof and processes for their preparation” (BAYER SCHERING PHARMA AKTIENGESELLSCHAFT, priority 2006, dated 2016)
# Tests used:
# [1] = test system: murine F9 teratocarcinoma model in NMRI nude mice; assay: Tumor enrichment and tissue distribution, F9 teratocarcinoma model; details: for Tumor/tissue quotient, Blood / Tumor/tissue quotient, Brain / Tumor/tissue quotient, Fat / Tumor/tissue quotient, Heart / Tumor/tissue quotient, Intestine / Tumor/tissue quotient, Kidney / Tumor/tissue quotient, Liver / Tumor/tissue quotient, Lung / Tumor/tissue quotient, Muscle / Tumor/tissue quotient, Ovary / Tumor/tissue quotient, Skin / Tumor/tissue quotient, Spleen / Tumor/tissue quotient, Stomach / Tumor/tissue quotient, Uterus: single i.v.; for Tissue uptake, Blood / Tissue uptake, Brain / Tissue uptake, Fat / Tissue uptake, Heart / Tissue uptake, Intestine / Tissue uptake, Kidney / Tissue uptake, Liver / Tissue uptake, Lung / Tissue uptake, Muscle / Tissue uptake, Ovary / Tissue uptake, Skin / Tissue uptake, Spleen / Tissue uptake, Stomach / Tissue uptake, Tumor / Tissue uptake, Uterus: single i.v. 370 kBq
# Protocol: For the evaluation of the tumor enrichment and the tissue distribution in experimental animals, [^18F]-4-glutamic acid was tested in a murine F9 teratocarcinoma model in NMRI nude mice and a murine B16F1 melanoma model in C57BI6 mice.
# For this, 1×10^6 cells (F9) or 5×10^5 cells (B16F1) respectively were suspended in 100 μl of phosphate-buffered physiological saline solution and inoculated subcutaneously into the right, rear flank of the corresponding experimental animal species (NMRI for F9 and 057-BI6 for B16F1) (Berndorff et al. Clin. Cancer Res. 2005, 11, 2005). […] [^18F]-4-Glutamic acid (370 kBq, in 100 μl of physiological saline solution) was administered intravenously to the tail vein. […]
# [2] = test system: HT29 (colonic carcinoma) cells; assay: Tumor cell uptake in HT29 cells; assay type: cell-based, human; details: compared to [^18F]FDG
# Protocol: For the evaluation of the tumor cell uptake of [^18F]glutamic acid, cell uptake experiments were carried out in human A549 (non-small-cell bronchial carcinoma) and HT29 (colonic carcinoma) cells. The tumor cell uptake of the glutamic acid derivatives was compared to
# [^18F]FDG (gold standard for oncological PET investigations).
smiles,measurement,setting,value
"NC(CC([18F])C(=O)O)C(=O)O (stereo not drawn) [[^18F]4-glutamic acid, 4-[F-18]fluoroglutamic acid]","Tumor/tissue quotient, Blood",[1]; 0.25 h (times as Table 1),1.14
same,"Tumor/tissue quotient, Brain",[1]; 0.25 h (times as Table 1),5.6
same,"Tumor/tissue quotient, Fat",[1]; 0.25 h (times as Table 1),5.85
same,"Tumor/tissue quotient, Heart",[1]; 0.25 h (times as Table 1),1.01
same,"Tumor/tissue quotient, Intestine",[1]; 0.25 h (times as Table 1),1.26
same,"Tumor/tissue quotient, Kidney",[1]; 0.25 h (times as Table 1),0.4
same,"Tumor/tissue quotient, Liver",[1]; 0.25 h (times as Table 1),0.86
same,"Tumor/tissue quotient, Lung",[1]; 0.25 h (times as Table 1),0.57
same,"Tumor/tissue quotient, Muscle",[1]; 0.25 h (times as Table 1),1.67
same,"Tumor/tissue quotient, Ovary",[1]; 0.25 h (times as Table 1),2.43
same,"Tumor/tissue quotient, Skin",[1]; 0.25 h (times as Table 1),1.25
same,"Tumor/tissue quotient, Spleen",[1]; 0.25 h (times as Table 1),1.12
same,"Tumor/tissue quotient, Stomach",[1]; 0.25 h (times as Table 1),1.12
same,"Tumor/tissue quotient, Uterus",[1]; 0.25 h (times as Table 1),1.18
same,"Tissue uptake, Blood",[1]; 0.25 h,2.51 % dose/g
same,"Tissue uptake, Brain",[1]; 0.25 h,0.52 % dose/g
same,"Tissue uptake, Fat",[1]; 0.25 h,0.85 % dose/g
same,"Tissue uptake, Heart",[1]; 0.25 h,2.86 % dose/g
same,"Tissue uptake, Intestine",[1]; 0.25 h,2.28 % dose/g
same,"Tissue uptake, Kidney",[1]; 0.25 h,7.24 % dose/g
same,"Tissue uptake, Liver",[1]; 0.25 h,3.37 % dose/g
same,"Tissue uptake, Lung",[1]; 0.25 h,5.08 % dose/g
same,"Tissue uptake, Muscle",[1]; 0.25 h,1.72 % dose/g
same,"Tissue uptake, Ovary",[1]; 0.25 h,1.34 % dose/g
same,"Tissue uptake, Skin",[1]; 0.25 h,2.28 % dose/g
same,"Tissue uptake, Spleen",[1]; 0.25 h,2.56 % dose/g
same,"Tissue uptake, Stomach",[1]; 0.25 h,2.56 % dose/g
same,"Tissue uptake, Tumor",[1]; 0.25 h,2.90 % dose/g
same,"Tissue uptake, Uterus",[1]; 0.25 h,2.54 % dose/g
same,"Tumor/tissue quotient, Blood",[1]; 1.0 h (times as Table 1),3.46
same,"Tumor/tissue quotient, Brain",[1]; 1.0 h (times as Table 1),4.2
same,"Tumor/tissue quotient, Fat",[1]; 1.0 h (times as Table 1),7.37
same,"Tumor/tissue quotient, Heart",[1]; 1.0 h (times as Table 1),2.73
same,"Tumor/tissue quotient, Intestine",[1]; 1.0 h (times as Table 1),0.97
same,"Tumor/tissue quotient, Kidney",[1]; 1.0 h (times as Table 1),1.38
same,"Tumor/tissue quotient, Liver",[1]; 1.0 h (times as Table 1),3.48
same,"Tumor/tissue quotient, Lung",[1]; 1.0 h (times as Table 1),1.34
same,"Tumor/tissue quotient, Muscle",[1]; 1.0 h (times as Table 1),2.51
same,"Tumor/tissue quotient, Ovary",[1]; 1.0 h (times as Table 1),5.05
same,"Tumor/tissue quotient, Skin",[1]; 1.0 h (times as Table 1),3.4
same,"Tumor/tissue quotient, Spleen",[1]; 1.0 h (times as Table 1),3.22
same,"Tumor/tissue quotient, Stomach",[1]; 1.0 h (times as Table 1),2.45
same,"Tumor/tissue quotient, Uterus",[1]; 1.0 h (times as Table 1),2.59
same,"Tissue uptake, Blood",[1]; 1.0 h,0.51 % dose/g
same,"Tissue uptake, Brain",[1]; 1.0 h,0.43 % dose/g
same,"Tissue uptake, Fat",[1]; 1.0 h,0.26 % dose/g
same,"Tissue uptake, Heart",[1]; 1.0 h,0.64 % dose/g
same,"Tissue uptake, Intestine",[1]; 1.0 h,1.83 % dose/g
same,"Tissue uptake, Kidney",[1]; 1.0 h,1.30 % dose/g
same,"Tissue uptake, Liver",[1]; 1.0 h,0.50 % dose/g
same,"Tissue uptake, Lung",[1]; 1.0 h,1.32 % dose/g
same,"Tissue uptake, Muscle",[1]; 1.0 h,0.70 % dose/g
same,"Tissue uptake, Ovary",[1]; 1.0 h,0.41 % dose/g
same,"Tissue uptake, Skin",[1]; 1.0 h,0.53 % dose/g
same,"Tissue uptake, Spleen",[1]; 1.0 h,0.54 % dose/g
same,"Tissue uptake, Stomach",[1]; 1.0 h,1.26 % dose/g
same,"Tissue uptake, Tumor",[1]; 1.0 h,1.75 % dose/g
same,"Tissue uptake, Uterus",[1]; 1.0 h,0.72 % dose/g
same,"Tumor/tissue quotient, Blood",[1]; 2.0 h (times as Table 1),9.06
same,"Tumor/tissue quotient, Brain",[1]; 2.0 h (times as Table 1),7.06
same,"Tumor/tissue quotient, Fat",[1]; 2.0 h (times as Table 1),23.67
same,"Tumor/tissue quotient, Heart",[1]; 2.0 h (times as Table 1),9.22
same,"Tumor/tissue quotient, Intestine",[1]; 2.0 h (times as Table 1),1.54
same,"Tumor/tissue quotient, Kidney",[1]; 2.0 h (times as Table 1),5.22
same,"Tumor/tissue quotient, Liver",[1]; 2.0 h (times as Table 1),9.23
same,"Tumor/tissue quotient, Lung",[1]; 2.0 h (times as Table 1),4.09
same,"Tumor/tissue quotient, Muscle",[1]; 2.0 h (times as Table 1),9.5
same,"Tumor/tissue quotient, Ovary",[1]; 2.0 h (times as Table 1),17.74
same,"Tumor/tissue quotient, Skin",[1]; 2.0 h (times as Table 1),9.4
same,"Tumor/tissue quotient, Spleen",[1]; 2.0 h (times as Table 1),18
same,"Tumor/tissue quotient, Stomach",[1]; 2.0 h (times as Table 1),6.85
same,"Tumor/tissue quotient, Uterus",[1]; 2.0 h (times as Table 1),6.96
same,"Tissue uptake, Blood",[1]; 2.0 h,0.21 % dose/g
same,"Tissue uptake, Brain",[1]; 2.0 h,0.27 % dose/g
same,"Tissue uptake, Fat",[1]; 2.0 h,0.09 % dose/g
same,"Tissue uptake, Heart",[1]; 2.0 h,0.21 % dose/g
same,"Tissue uptake, Intestine",[1]; 2.0 h,1.21 % dose/g
same,"Tissue uptake, Kidney",[1]; 2.0 h,0.37 % dose/g
same,"Tissue uptake, Liver",[1]; 2.0 h,0.20 % dose/g
same,"Tissue uptake, Lung",[1]; 2.0 h,0.48 % dose/g
same,"Tissue uptake, Muscle",[1]; 2.0 h,0.42 % dose/g
same,"Tissue uptake, Ovary",[1]; 2.0 h,0.12 % dose/g
same,"Tissue uptake, Skin",[1]; 2.0 h,0.21 % dose/g
same,"Tissue uptake, Spleen",[1]; 2.0 h,0.16 % dose/g
same,"Tissue uptake, Stomach",[1]; 2.0 h,0.33 % dose/g
same,"Tissue uptake, Tumor",[1]; 2.0 h,1.87 % dose/g
same,"Tissue uptake, Uterus",[1]; 2.0 h,0.32 % dose/g
same,tumor enrichment,"[1]; F9 teratocarcinoma, 1 h after intravenous administration",1.75 % ID/g
same,maximal tumor enrichment,"[1]; F9 teratocarcinoma, after intravenous injection (15 min)",2.90 % ID/g
same,tumor cell uptake,[2],surprisingly high uptake
